These results are taken from US20030054291A1, “Optical data storage medium containing a hemicyanine dye as the light-absorbing compound in the information layer” (priority 2001, published 2003).

The series is described as follows: Solubility in TFP (2,2,3,3-tetrafluoropropanol). The format is physicochemical. The text has this:
Solubility: >2% in TFP (2,2,3,3-tetrafluoropropanol)

As to `CN(C)c1ccc(/C=C/C2=[N+](C)c3ccccc3C2(C)C)o1` [Example 1], the Solubility is on record as above 2%.
